Reference: patent US20110305784A1, “Fractionated products obtained from gamboge resin, and medical uses of the same” (priority 2010, published 2011)
Values after ≈ are worked out from the molar mass of the structure shown. Where two headings read alike, the source gives them in different places.

Key:
[1] = system: Human colon adenocarcinoma cell HT-29; test: cells; conditions: for CC50: HT-29, read-out: LC50 (50% lethal concentration)
Excerpt: (§1) The in vitro anti-cancer test was primarily used to detect the effect of a candidate drug on cancer cell proliferation. The working principle involved therein is the ability of viable cells to shift alamarBlue (AbD Serotec, UK) from its originally non-fluorescent oxidized state (non-fluorescent, blue) to a reduced form (fluorescent, red) having fluorescence via metabolic reaction. According to the fluorescent data result generated by the alamarBlue reagent thus obtained, the proliferation of the viable cells and cell activity can be quantified for detection.
(§2) In the in vitro anti-cancer tests, a candidate drug was tested at 5 different concentrations of 0.01, 0.1, 1, 10, and 100 μg/ml, and six human cancer cell lines and a normal human cell line were used (see Table 10).

[2] = system: Human histocytic lymphoma cell U937; test: cells; conditions: for CC50: U-937, read-out: LC50 (50% lethal concentration)
Excerpt: as §1, §2

[3] = system: Human promyelocytic leukemia cell HL-60; test: cells; conditions: for CC50: HL-60, read-out: LC50 (50% lethal concentration)
Excerpt: as §1, §2

[4] = system: Human breast adenocarcinoma cell MCF7; test: cells; conditions: for CC50: MCF7, read-out: LC50 (50% lethal concentration)
Excerpt: as §1, §2

[5] = system: Human hepatocellular carcinoma cell HepG2; test: cells; conditions: for CC50: HepG2, read-out: LC50 (50% lethal concentration)
Excerpt: as §1, §2

in vitro = conditions: human
Excerpt: as §1, §2

[6] = system: Human lung carcinoma cell A549; test: cells; conditions: for CC50: A549, read-out: LC50 (50% lethal concentration)
Excerpt: as §1, §2

[7] = system: Human umbilical venal epithelial cell (HUVEC); test: cells; conditions: HUVEC; for IC50: Homo sapiens
Excerpt: as §1, §2

[8] = HT-29, read-out: IC50 (50% inhibition concentration)
[9] = U-937, read-out: IC50 (50% inhibition concentration)
[10] = HL-60, read-out: IC50 (50% inhibition concentration)
[11] = MCF7, read-out: IC50 (50% inhibition concentration)
[12] = HepG2, read-out: IC50 (50% inhibition concentration)
[13] = A549, read-out: IC50 (50% inhibition concentration)
[14] = read-out: IC50 (50% inhibition concentration)

SMILES | CC50 [1] [µg/mL] | CC50 [2] [µg/mL] | CC50 [3] [µg/mL] | CC50 [4] [µg/mL] | CC50 [5] [µg/mL] | CC50 [6] [µg/mL] | IC50 [2, 9] [µg/mL] | IC50 [3, 10] [µg/mL] | IC50 [4, 11] [µg/mL] | LC50 (50% lethal concentration) [7] [µg/mL] | also measured
CC(C)=CCc1c2c(c(O)c3c1O[C@]14C(=C[C@@H]5CC1C(C)(C)OC4(C/C=C(/C)C(=O)O)C5=O)C3=O)C=C[C@](C)(CCC(O)C(C)(C)O)O2 (stereo partly drawn) [Gh-3271, epiformoxanthone J] | 5.8 (≈ 8.75 µM) | 0.35 (≈ 0.528 µM) | 17.1 (≈ 25.8 µM) | 0.62 (≈ 0.935 µM) | 4.6 (≈ 6.94 µM) | 0.51 (≈ 0.769 µM) |  |  |  |  | CC50 (in vitro): 1.5 µg/mL (≈ 2.26 µM)
CC(C)=CCC[C@@]1(C)C=Cc2c(O)c3c(c(CC=C(C)C)c2O1)O[C@]12C(=C[C@@H]4CC1C(C)(C)O[C@]2(C/C=C(/CO)C(=O)O)C4=O)C3=O [Gh-1602, 30-hydroxyepigambogic acid] | 4.2 (≈ 6.51 µM) | 0.69 (≈ 1.07 µM) | 3.3 (≈ 5.12 µM) | 4 (≈ 6.2 µM) | 3.5 (≈ 5.43 µM) | 3.7 (≈ 5.74 µM) |  |  |  |  | IC50 ([1]; HT-29, read-out: IC50 (50% inhibition concentration), HT-29): 0.94 µg/mL (≈ 1.46 µM); IC50 ([2]; U-937, read-out: IC50 (50% inhibition concentration), U937): 0.14 µg/mL (≈ 0.217 µM); IC50 ([3]; HL-60, read-out: IC50 (50% inhibition concentration), HL-60): 1 µg/mL (≈ 1.55 µM); IC50 ([4]; MCF7, read-out: IC50 (50% inhibition concentration), MCF-7): 0.27 µg/mL (≈ 0.419 µM); IC50 ([5]; HepG2, read-out: IC50 (50% inhibition concentration), HepG2): 1.3 µg/mL (≈ 2.02 µM); IC50 ([6]; A549, read-out: IC50 (50% inhibition concentration), A549): 0.4 µg/mL (≈ 0.62 µM); IC50 ([7]; read-out: IC50 (50% inhibition concentration), HUVEC): 0.25 µg/mL (≈ 0.388 µM)
CC(C)=CCC[C@]1(C)C=Cc2c(O)c3c(c(C(O)C4OC4(C)C)c2O1)O[C@]12C(=C[C@@H]4CC1C(C)(C)OC2(C/C=C(/C)C(=O)O)C4=O)C3=O (stereo partly drawn) [Gh-3353, formoxanthone G] | 20.8 (≈ 31.5 µM) | 14.6 (≈ 22.1 µM) | 2.4 (≈ 3.63 µM) | 9.6 (≈ 14.5 µM) | 35.5 (≈ 53.7 µM) | 8.2 (≈ 12.4 µM) | 4.8 (≈ 7.26 µM) | 1.3 (≈ 1.97 µM) | 2.4 (≈ 3.63 µM) |  | IC50 [1, 8]: 5 µg/mL (≈ 7.57 µM); IC50 [5, 12]: 5.3 µg/mL (≈ 8.02 µM); CC50 (in vitro): 8.4 µg/mL (≈ 12.7 µM); IC50 [6, 13]: 2.6 µg/mL (≈ 3.93 µM); IC50 [7, 14]: 5.5 µg/mL (≈ 8.32 µM)
C=C(C)C1CC[C@]2(C)C[C@H]1c1c(O)c3c(c(CC=C(C)C)c1O2)O[C@]12C(=C[C@@H]4CC1C(C)(C)O[C@]2(/C=C/C(C)C(=O)O)C4=O)C3=O (stereo partly drawn) [Gh-2508, β-gambogellic acid] |  |  |  |  |  |  |  |  |  | 5.4 (≈ 8.59 µM) | 
CC(C)=CCc1c2c(c(O)c3c1O[C@]1(C)CCC4[C@H]3C1C4(C)C)C(=O)C1=CC3CC4C(C)(C)O[C@](C/C=C(/C)C(=O)O)(C3=O)[C@@]14O2 [Gh-2607-B, formoxanthone B] | 1 (≈ 1.59 µM) |  |  |  | 4 (≈ 6.36 µM) |  | 0.1 (≈ 0.159 µM) |  | 0.1 (≈ 0.159 µM) | 1.6 (≈ 2.54 µM) | IC50 [1, 8]: 0.3 µg/mL (≈ 0.477 µM); IC50 [6, 13]: 0.1 µg/mL (≈ 0.159 µM); IC50 [7, 14]: 0.07 µg/mL (≈ 0.111 µM)
CC(C)=CCC[C@]1(C)C[C@H](O)c2c(O)c3c(c(CC=C(C)C)c2O1)O[C@]12C(=C[C@@H]4CC1C(C)(C)O[C@]2(C/C=C(/C)C(=O)O)C4=O)C3=O (stereo in doubt) [Gh-2641-1, neogambogic acid] |  | 1 (≈ 1.55 µM) |  |  |  |  |  |  | 0.2 (≈ 0.309 µM) | 4.3 (≈ 6.65 µM) | 
CC(C)=CCC[C@]1(C)C=Cc2c(O)c3c(c(CC=C(C)C)c2O1)O[C@]12C(=C[C@@H]4CC1C(C)(C)O[C@]2(C/C=C(\C)C(=O)O)C4=O)C3=O [Gh-1641, isogambogic acid] |  |  |  |  |  | 3 (≈ 4.77 µM) |  | 8 (≈ 12.7 µM) |  | 1.3 (≈ 2.07 µM) | 
CC(C)=CCc1c2c(c(O)c3c1O[C@]14C(=C[C@@H]5CC1C(C)(C)O[C@]4(C/C=C(\C)C=O)C5=O)C3=O)C=CC(C)(C)O2 [Gh-2501, isomorellin] | 4 (≈ 7.34 µM) |  | 4 (≈ 7.34 µM) |  |  |  | 0.9 (≈ 1.65 µM) | 1 (≈ 1.84 µM) |  | 1.8 (≈ 3.3 µM) | 
CC(C)=CCC/C(C)=C/Cc1c(O)c(CC=C(C)C)c2c(c1O)C(=O)C1=C[C@@H]3CC4C(C)(C)O[C@](C/C=C(\C)C(=O)O)(C3=O)[C@@]14O2 [Gh-2642, isogambogenic acid] |  |  |  |  |  |  |  | 9 (≈ 14.3 µM) | 3 (≈ 4.76 µM) | 11 (≈ 17.4 µM) | 
C=C(C)[C@@H]1CC[C@@]2(C)CC1c1c(O)c3c(c(CC=C(C)C)c1O2)O[C@]12C(=C[C@@H]4CC1C(C)(C)O[C@]2(/C=C/C(C)C(=O)O)C4=O)C3=O (stereo partly drawn) [Gh-2507, β-epigambogellic acid] |  |  |  |  |  |  |  | 0.2 (≈ 0.318 µM) |  | 21.0 (≈ 33.4 µM) | 
C=C(C)[C@@H]1CC[C@@]2(C)CC1c1c(O)c3c(c(CC=C(C)C)c1O2)O[C@]12C(=C[C@@H]4CC1C(C)(C)O[C@]2(C/C=C(/C)C(=O)O)C4=O)C3=O [Gh-2603-1, epigambogellic acid] | 3.7 (≈ 5.88 µM) | 3.1 (≈ 4.93 µM) | 2.9 (≈ 4.61 µM) | 4.2 (≈ 6.68 µM) | 3.3 (≈ 5.25 µM) | 0.34 (≈ 0.541 µM) | 1.3 (≈ 2.07 µM) | 1 (≈ 1.59 µM) | 2.2 (≈ 3.5 µM) |  | IC50 [1, 8]: 1.6 µg/mL (≈ 2.54 µM); IC50 [5, 12]: 1 µg/mL (≈ 1.59 µM); IC50 [6, 13]: 0.036 µg/mL (≈ 0.0573 µM); IC50 [7, 14]: 0.26 µg/mL (≈ 0.414 µM)
